# Source: US6358885B1, “Substituted phenylheterocyclic herbicides” (Mississippi State University, priority 1992, dated 2002)
# Columns and labels:
# barley = assay: Test B preemergence/postemergence greenhouse plant response rating 0 to 10; assay type: in vivo, Hordeum vulgare; settings: 0 to 10 scale
# Summary of the method: (§1)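 Test chemicals, dissolved in a non-phytotoxic solvent, were applied to soil at planting and, at the same time, over foliage of seedlings at the one to four leaf stage.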
# barnyardgrass = assay: as above; assay type: in vivo, Echinochloa crus-galli; settings: 0 to 10 scale
# Summary of the method: as §1
# blackgrass = assay: as above; assay type: in vivo, Alopecurus myosuroides; settings: 0 to 10 scale
# Summary of the method: as §1
# chickweed = assay: as above; assay type: in vivo, Stellaria media; settings: 0 to 10 scale
# Summary of the method: as §1
# corn [1] = assay: as above; assay type: in vivo, Zea mays; settings: 0 to 10 scale
# Summary of the method: as §1
# sorghum = assay: as above; assay type: in vivo, Sorghum bicolor; settings: 0 to 10 scale
# Summary of the method: as §1
# sugar beet = assay: as above; assay type: in vivo, Beta vulgaris; settings: 0 to 10 scale
# Summary of the method: as §1
# velvetleaf = assay: as above; assay type: in vivo, Abutilon theophrasti; settings: 0 to 10 scale
# Summary of the method: as §1
# purple nutsedge = assay: as above; assay type: in vivo, Cyperus rotundus; settings: 0 to 10 scale
# Summary of the method: as §1
# bedstraw = assay: Test C preemergence/postemergence greenhouse plant response rating 0 to 100; assay type: in vivo, Galium aparine; settings: POSTEMERGENCE; for Plant response rating, Bedstraw: 0 to 100 scale
# Summary of the method: (§2)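 Compounds in non-phytotoxic solvent applied preemergence to sandy loam one day after planting, postemergence at the 1–4 leaf stage, or to ~2.5 cm floodwater over silt loam.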
# corn [2] = assay: as above; assay type: in vivo, Zea mays; settings: POSTEMERGENCE; for Plant response rating, Corn: 0 to 100 scale
# Summary of the method: as §2
# crabgrass = assay: as above; assay type: in vivo, Digitaria sanguinalis; settings: POSTEMERGENCE; for Plant response rating, Crabgrass: 0 to 100 scale
# Summary of the method: as §2
# morningglory = assay: as above; assay type: in vivo, Ipomoea hederacea; settings: POSTEMERGENCE; for Plant response rating, Morningglory: 0 to 100 scale
# Summary of the method: as §2
# rape = assay: as above; assay type: in vivo, Brassica napus; settings: POSTEMERGENCE; for Plant response rating, Rape: 0 to 100 scale
# Summary of the method: as §2
# ryegrass = assay: as above; assay type: in vivo, Lolium multiflorum; settings: POSTEMERGENCE; for Plant response rating Ryegrass: 0 to 100 scale
# Summary of the method: as §2
# wheat = assay: as above; assay type: in vivo, Triticum aestivum; settings: POSTEMERGENCE; for Plant response rating, Wheat: 0 to 100 scale
# Summary of the method: as §2
# wild oat = assay: as above; assay type: in vivo, Avena fatua; settings: POSTEMERGENCE; for Plant response rating, Wild oat: 0 to 100 scale
# Summary of the method: as §2
# rice = assay: Test C flood test plant response rating 0 to 100; assay type: in vivo, Oryza sativa; settings: for Plant response rating Rice Japonica: flood test species listed under POSTEMERGENCE, 0 to 100 scale
# Summary of the method: as §2
smiles,measurement,setting,value
Fc1cc(Cl)c(OCCCl)cc1-c1nn2c(c1Cl)CCCC2 [Compound 49],"Plant response rating, Barley","barley; POSTEMERGENCE, Rate 50 g/ha",4
same,"Plant response rating, Barley","barley; POSTEMERGENCE, Rate 200 g/ha",5
same,"Plant response rating, Barley","barley; PREEMERGENCE, Rate 50 g/ha",0
same,"Plant response rating, Barley","barley; Rate 200 g/ha, PREEMERGENCE",0
same,"Plant response rating, Barnyardgrass","barnyardgrass; POSTEMERGENCE, Rate 50 g/ha",3
same,"Plant response rating, Barnyardgrass","barnyardgrass; POSTEMERGENCE, Rate 200 g/ha",7
same,"Plant response rating, Barnyardgrass","barnyardgrass; PREEMERGENCE, Rate 50 g/ha",0
same,"Plant response rating, Barnyardgrass","barnyardgrass; Rate 200 g/ha, PREEMERGENCE",5
same,"Plant response rating, Blackgrass","blackgrass; POSTEMERGENCE, Rate 50 g/ha",4
same,"Plant response rating, Blackgrass","blackgrass; POSTEMERGENCE, Rate 200 g/ha",6
same,"Plant response rating, Blackgrass","blackgrass; PREEMERGENCE, Rate 50 g/ha",0
same,"Plant response rating, Blackgrass","blackgrass; Rate 200 g/ha, PREEMERGENCE",2
same,"Plant response rating, Chickweed","chickweed; POSTEMERGENCE, Rate 50 g/ha",7
same,"Plant response rating, Chickweed","chickweed; POSTEMERGENCE, Rate 200 g/ha",9
same,"Plant response rating, Chickweed","chickweed; PREEMERGENCE, Rate 50 g/ha",0
same,"Plant response rating, Chickweed","chickweed; Rate 200 g/ha, PREEMERGENCE",8
same,"Plant response rating, Corn","corn [1]; POSTEMERGENCE, Rate 50 g/ha",3
same,"Plant response rating, Corn","corn [1]; POSTEMERGENCE, Rate 200 g/ha",4
same,"Plant response rating, Corn","corn [1]; PREEMERGENCE, Rate 50 g/ha",0
same,"Plant response rating, Corn","corn [1]; Rate 200 g/ha, PREEMERGENCE",2
same,"Plant response rating, Sorghum","sorghum; POSTEMERGENCE, Rate 50 g/ha",3
same,"Plant response rating, Sorghum","sorghum; PREEMERGENCE, Rate 50 g/ha",0
same,"Plant response rating, Sorghum","sorghum; Rate 200 g/ha, POSTEMERGENCE",5
same,"Plant response rating, Sorghum","sorghum; Rate 200 g/ha, PREEMERGENCE",1
same,"Plant response rating, Sugar beet","sugar beet; POSTEMERGENCE, Rate 50 g/ha",10
same,"Plant response rating, Sugar beet","sugar beet; PREEMERGENCE, Rate 50 g/ha",9
same,"Plant response rating, Sugar beet","sugar beet; Rate 200 g/ha, POSTEMERGENCE",10
same,"Plant response rating, Sugar beet","sugar beet; Rate 200 g/ha, PREEMERGENCE",10
same,"Plant response rating, Velvetleaf","velvetleaf; POSTEMERGENCE, Rate 50 g/ha",9
same,"Plant response rating, Velvetleaf","velvetleaf; PREEMERGENCE, Rate 50 g/ha",0
same,"Plant response rating, Velvetleaf","velvetleaf; Rate 200 g/ha, POSTEMERGENCE",10
same,"Plant response rating, Velvetleaf","velvetleaf; Rate 200 g/ha, PREEMERGENCE",1
same,"Plant response rating, Nutsedge","purple nutsedge; POSTEMERGENCE, Rate 50 g/ha",2
same,"Plant response rating, Nutsedge","purple nutsedge; PREEMERGENCE, Rate 50 g/ha",0
same,"Plant response rating, Nutsedge","purple nutsedge; Rate 200 g/ha, POSTEMERGENCE",6
same,"Plant response rating, Nutsedge","purple nutsedge; Rate 200 g/ha, PREEMERGENCE",0
same,"Plant response rating, Bedstraw",bedstraw; 62 g/ha,70
same,"Plant response rating, Bedstraw",bedstraw; 250 g/ha,100
same,"Plant response rating (0 to 100), Bedstraw",bedstraw; Rate 4 g/ha,20
same,"Plant response rating (0 to 100), Bedstraw",bedstraw; Rate 16 g/ha,50
same,"Plant response rating, Corn",corn [2]; 62 g/ha,40
same,"Plant response rating, Corn",corn [2]; 250 g/ha,50
same,"Plant response rating (0 to 100), Corn",corn [2]; Rate 4 g/ha,10
same,"Plant response rating (0 to 100), Corn",corn [2]; Rate 16 g/ha,30
same,"Plant response rating, Crabgrass",crabgrass; 62 g/ha,20
same,"Plant response rating, Crabgrass",crabgrass; 250 g/ha,40
same,"Plant response rating (0 to 100), Crabgrass",crabgrass; Rate 4 g/ha,10
same,"Plant response rating (0 to 100), Crabgrass",crabgrass; Rate 16 g/ha,10
same,"Plant response rating, Morningglory",morningglory; 62 g/ha,100
same,"Plant response rating, Morningglory",morningglory; 250 g/ha,100
same,"Plant response rating (0 to 100), Morningglory",morningglory; Rate 4 g/ha,40
same,"Plant response rating (0 to 100), Morningglory",morningglory; Rate 16 g/ha,50
same,"Plant response rating, Rape",rape; 62 g/ha,70
same,"Plant response rating, Rape",rape; 250 g/ha,100
same,"Plant response rating (0 to 100), Rape",rape; Rate 4 g/ha,50
same,"Plant response rating (0 to 100), Rape",rape; Rate 16 g/ha,60
same,Plant response rating Ryegrass,ryegrass; 62 g/ha,50
same,Plant response rating Ryegrass,ryegrass; 250 g/ha,60
same,"Plant response rating (0 to 100), Ryegrass",ryegrass; Rate 4 g/ha,20
same,"Plant response rating (0 to 100), Ryegrass",ryegrass; Rate 16 g/ha,40
same,"Plant response rating, Wheat",wheat; 62 g/ha,50
same,"Plant response rating, Wheat",wheat; 250 g/ha,70
same,"Plant response rating (0 to 100), Wheat",wheat; Rate 4 g/ha,10
same,"Plant response rating (0 to 100), Wheat",wheat; Rate 16 g/ha,20
same,"Plant response rating, Wild oat",wild oat; 62 g/ha,50
same,"Plant response rating, Wild oat",wild oat; 250 g/ha,60
same,"Plant response rating (0 to 100), Wild oat",wild oat; Rate 4 g/ha,20
same,"Plant response rating (0 to 100), Wild oat",wild oat; Rate 16 g/ha,40
same,"Plant response rating (0 to 100), Rice Japonica","rice; POSTEMERGENCE section, flood test, Rate 4 g/ha",10
same,"Plant response rating (0 to 100), Rice Japonica","rice; Rate 16 g/ha, under POSTEMERGENCE head (flood test species)",30
same,Plant response rating Rice Japonica,rice; 62 g/ha,50
same,Plant response rating Rice Japonica,rice; 250 g/ha,60
